Measurements reported in publication PMC10313808, “Lipoxygenase inhibitory synthetic derivatives of methyl gallate regulate gene expressions of COX-2 and cytokines to reduce animal model arthritis” (Scientific Reports, 2023).

Columns and labels:
[1] = biological target: T1, Lipoxidase from Glycine max (15- LOX) (Glycine max, UniProt P08170); experiment: Michaelis–Menten enzyme kinetics (Lineweaver-Burk); assay type: biochemical; settings: for IC50: Cheng–Prusoff from Ki
T1 construct: purchased Sigma (Sigma-Aldrich, UK)
T1 sequence (P08170 1-839): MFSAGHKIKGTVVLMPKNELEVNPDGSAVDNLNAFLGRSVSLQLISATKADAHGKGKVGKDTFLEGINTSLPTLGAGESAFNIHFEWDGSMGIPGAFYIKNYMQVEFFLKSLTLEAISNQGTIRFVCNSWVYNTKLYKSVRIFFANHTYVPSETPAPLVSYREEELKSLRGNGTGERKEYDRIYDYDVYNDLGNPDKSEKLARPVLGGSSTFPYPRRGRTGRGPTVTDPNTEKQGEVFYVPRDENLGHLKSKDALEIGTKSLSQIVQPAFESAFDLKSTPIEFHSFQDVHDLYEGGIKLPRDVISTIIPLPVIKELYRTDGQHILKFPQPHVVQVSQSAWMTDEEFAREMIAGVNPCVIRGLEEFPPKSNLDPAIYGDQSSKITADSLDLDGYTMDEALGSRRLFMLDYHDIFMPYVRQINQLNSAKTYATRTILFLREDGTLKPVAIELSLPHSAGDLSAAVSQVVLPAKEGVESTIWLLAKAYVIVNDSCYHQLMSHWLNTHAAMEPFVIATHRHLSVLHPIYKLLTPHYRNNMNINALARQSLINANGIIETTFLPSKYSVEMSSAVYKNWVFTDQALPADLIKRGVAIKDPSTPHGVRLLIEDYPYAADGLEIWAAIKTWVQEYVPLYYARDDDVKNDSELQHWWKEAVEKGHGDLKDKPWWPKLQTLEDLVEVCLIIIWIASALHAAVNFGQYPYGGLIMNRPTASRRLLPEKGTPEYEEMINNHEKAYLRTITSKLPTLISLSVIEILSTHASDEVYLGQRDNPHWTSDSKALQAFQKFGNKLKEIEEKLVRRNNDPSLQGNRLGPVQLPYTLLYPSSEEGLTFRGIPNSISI
Experimental: To identify the mode of inhibition, enzyme kinetics assay was performed with MGSDs. For the kinetic analysis different substrate concentrations of 18, 27, 36, 45, 54, 63 µM were prepared in 0.2 mM borate buffer (H 9)[16]. The assay mixture was made of 50 µL of LOX, 50 µL of the test solution and different concentrations of the substrate. The final volume was made upto 2 mL with corresponding borate buffer quantity. The activity of LOX was measured by the formation of […], which was monitored at 234 nm on spectrophotometer, (HITACHI U 2900, Japan). The reaction was measured at a time span of 300 s. The same experiment was repeated in the presence of 0.1, 0.08 and 0.06 μM concentration of MGSDs. The Line Weaver-Burk plot was constructed and Michaelis–Menten constant (Km) and Maximal Velocity (Vmax) were determined from the plot. From the Km and Vmax obtained, the inhibitor constant, Ki was calculated using the following equation derived from the Michaelis–Menten Equation: Km′=Km1+I0/Ki. The IC50was calculated using the Cheng–Prusoff equation, Ki=IC50/1+S/Km.

[2] = biological target: T2, LOX (Glycine max, UniProt P08170); experiment: Fluorescence quenching studies; assay type: binding; settings: 296 K, pH 9
T2 construct: purchased Sigma (Sigma-Aldrich, UK)
T2 sequence (P08170 1-839): T1 sequence (P08170 1-839)
Excerpt: To analyze the type of mechanism, the data of fluorescence of LOX was plotted, as relative fluorescence intensity (F0/F), against MGSDs. Here F and F0 are the fluorescence intensity in the presence and absence of MGSDs respectively. The Stern–Volmer constants were obtained from the plot by linear regression using the expression: F0/F=1+KsvQ.
Ksv is the Stern–Volmer constant and [Q] is the respective concentration of derivatives. Ksv which depicts the binding affinity between the fluorophore (protein) and quencher (ligand), were obtained from the slopes of the plot (Supplementary Fig. 15). […] The Fluorescence quenching data provided information about the binding constant (K), the number of binding sites (n), and the values could be arrived by applying the equation. Log F0-F/F=log K+nlogQ.
The Fluoromax-4 spectrophotometer (Spectra-NanoLED source 278) was used for studying fluorescence quenching of the compound. Bandwidth set at 5 nm for both excitation and emission spectra. The wavelength was set for excitation at 280 nm and the emission was recorded at 290–450 nm using 1.0 cm cell at 296 K temperature. The LOX with a concentration of 7 μM, dissolved in borate buffer at pH 9 and ligands at the concentrations of 35, 70, 105, 140, 175, 210, 245 and 280 μM were used for the experiment.

## O=C(O)COc1cc(C(=O)O)cc(OCC(=O)O)c1OCC(=O)O [MGSD 1, 2,2′,2″-((5-carboxybenzene-1,2,3-triyl)tris(oxy)) tri acetic acid]
[1]
  IC50: 102 nM
[1]; abstract
  IC50: 100 nM
[1]; linoleic acid substrate, competitive
  Ki: 30 nM
[2]; read-out: Binding constant (K) (converted)
  Kd: 752000 nM
[2]; Stern–Volmer
  Quenching constant (Ksv): 6200 M⁻¹
